We go through 7 molecules from publication PMC9851200, “Multiparameter phenotypic screening for endogenous TFEB and TFE3 translocation identifies novel chemical series modulating lysosome function” (Autophagy, 2022).

Like-named read-outs stand apart in the source and are kept apart here.

Series [1] deals with T1, PRKD1 (Homo sapiens, UniProt Q15139).
T1 sequence (Q15139 1-912): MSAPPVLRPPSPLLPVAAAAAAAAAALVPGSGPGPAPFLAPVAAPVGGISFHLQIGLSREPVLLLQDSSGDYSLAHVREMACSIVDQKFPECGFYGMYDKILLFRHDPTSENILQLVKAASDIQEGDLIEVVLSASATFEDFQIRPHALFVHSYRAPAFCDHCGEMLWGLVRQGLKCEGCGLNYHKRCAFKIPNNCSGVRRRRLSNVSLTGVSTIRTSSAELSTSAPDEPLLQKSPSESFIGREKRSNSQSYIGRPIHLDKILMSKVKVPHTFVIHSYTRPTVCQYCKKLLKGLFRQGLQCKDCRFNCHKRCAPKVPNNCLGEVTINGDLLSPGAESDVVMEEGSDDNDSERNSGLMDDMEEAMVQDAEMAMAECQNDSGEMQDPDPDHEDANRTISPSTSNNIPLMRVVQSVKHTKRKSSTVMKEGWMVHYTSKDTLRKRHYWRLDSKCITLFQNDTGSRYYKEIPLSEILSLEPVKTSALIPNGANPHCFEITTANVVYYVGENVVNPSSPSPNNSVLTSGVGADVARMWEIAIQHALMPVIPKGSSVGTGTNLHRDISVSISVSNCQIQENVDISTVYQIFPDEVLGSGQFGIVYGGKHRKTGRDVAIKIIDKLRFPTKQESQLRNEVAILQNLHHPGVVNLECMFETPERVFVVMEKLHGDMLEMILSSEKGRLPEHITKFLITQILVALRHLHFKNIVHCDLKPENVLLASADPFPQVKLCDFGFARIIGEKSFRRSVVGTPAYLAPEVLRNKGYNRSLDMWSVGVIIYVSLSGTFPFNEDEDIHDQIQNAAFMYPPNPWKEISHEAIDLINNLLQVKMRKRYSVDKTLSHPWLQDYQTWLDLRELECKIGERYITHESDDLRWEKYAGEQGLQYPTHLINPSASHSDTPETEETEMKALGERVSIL
To be noted: cited from earlier work.

In a further series the target is T2, PRKD2 (Homo sapiens, UniProt Q9BZL6).
T2 sequence (Q9BZL6 1-878): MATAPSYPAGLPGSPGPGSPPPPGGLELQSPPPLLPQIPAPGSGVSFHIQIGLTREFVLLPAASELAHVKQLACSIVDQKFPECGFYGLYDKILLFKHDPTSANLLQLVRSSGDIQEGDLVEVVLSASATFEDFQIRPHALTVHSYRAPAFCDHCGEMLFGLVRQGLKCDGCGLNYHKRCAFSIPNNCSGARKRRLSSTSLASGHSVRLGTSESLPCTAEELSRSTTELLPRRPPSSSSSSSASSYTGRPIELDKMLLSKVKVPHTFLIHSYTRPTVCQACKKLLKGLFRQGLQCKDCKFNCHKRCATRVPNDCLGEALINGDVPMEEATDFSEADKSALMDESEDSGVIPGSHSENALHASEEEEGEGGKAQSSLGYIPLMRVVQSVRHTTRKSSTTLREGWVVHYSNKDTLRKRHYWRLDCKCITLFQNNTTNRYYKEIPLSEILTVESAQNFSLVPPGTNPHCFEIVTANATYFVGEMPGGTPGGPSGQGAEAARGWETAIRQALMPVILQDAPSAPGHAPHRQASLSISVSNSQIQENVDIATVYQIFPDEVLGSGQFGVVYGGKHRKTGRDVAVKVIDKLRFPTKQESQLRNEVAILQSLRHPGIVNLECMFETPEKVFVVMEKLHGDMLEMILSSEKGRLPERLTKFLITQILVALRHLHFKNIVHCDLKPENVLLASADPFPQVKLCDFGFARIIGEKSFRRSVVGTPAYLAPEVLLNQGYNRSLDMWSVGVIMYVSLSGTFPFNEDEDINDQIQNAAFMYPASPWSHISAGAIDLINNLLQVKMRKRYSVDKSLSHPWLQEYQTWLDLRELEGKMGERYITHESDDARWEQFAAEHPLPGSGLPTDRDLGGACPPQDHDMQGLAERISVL
The settings on record: read-out: IC50 PRKD2; cited from earlier work.

The next series has as its target T3, TGFBR1 (Homo sapiens, UniProt P36897).
T3 sequence (P36897 34-503): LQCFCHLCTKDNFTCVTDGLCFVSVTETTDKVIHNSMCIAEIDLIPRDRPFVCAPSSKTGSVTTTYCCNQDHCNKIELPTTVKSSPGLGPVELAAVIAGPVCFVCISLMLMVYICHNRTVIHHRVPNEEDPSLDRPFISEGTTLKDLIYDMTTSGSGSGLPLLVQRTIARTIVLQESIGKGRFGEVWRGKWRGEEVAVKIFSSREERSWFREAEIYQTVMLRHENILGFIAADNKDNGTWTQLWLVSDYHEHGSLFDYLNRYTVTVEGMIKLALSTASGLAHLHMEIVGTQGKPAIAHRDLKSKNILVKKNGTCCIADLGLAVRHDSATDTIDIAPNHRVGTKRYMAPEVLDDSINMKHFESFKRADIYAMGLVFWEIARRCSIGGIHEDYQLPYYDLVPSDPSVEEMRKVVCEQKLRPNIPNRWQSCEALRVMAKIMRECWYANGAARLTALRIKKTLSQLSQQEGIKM
The series can be described thus: TGFBR1 binding KD (Table S3). To be noted: read-out: TGFBR1 KD. The source says:
(§1) Supplement KAUP_A_2095834_SM5251.zip/Supplementary Tables R7.xlsx, sheet "Table S3 - Analogues"

For the next series, the system named is endogenous TFE3. The experiment in a line: TFE3 nuclear translocation, immunocytochemistry high-content imaging. The class given is cell-based. To be noted: for EC50 / Best-Fit Values Span: 24 h, SH-SY5Y; for EC50: read-out: Best-Fit Values EC50 (converted); for Summary: activity in TFE3 assays compared with original NK-140, OT activity; for Best-Fit Values Span: TFE3 assay concentration response.

Series [2] addresses T1, PRKD1. The experiment in a line: PRKD1 binding KD (Table S3). To be noted: relation sign.
Source text: as §1

Where [3] appears, read: TFE3 assay, second EC50 of biphasic/bell-shaped fit or OT (off-target) activity, unit inferred.

Method for SH-SY5Y cells: Total cell lysis with 5 µL 5% Triton-X 100 (Sigma-Aldrich, T8787) is used as a positive control for the assay and toxicity is expressed as a percentage of luminescence under DMSO conditions.

With `CC[C@@H](N)CNc1ccnc(-c2cc(-c3cnn(C)c3)ccc2O)n1.Cl.Cl` [CRT0066101, reference compound], the IC50 at PRKD1 [1] is 1 nM. For the same molecule, in the series with SH-SY5Y cells, the “Cellular toxicity (AK release and nuclear count, in words)” value was “pronounced cellular toxicity”; the “Concentrations toxic to cells (reduction in nuclear count and increase in AK signal)” value is reported as “above 1 µM”. Moreover, at PRKD2, the 50% inhibitory concentration (IC50) is 2.5 nM.
Consider `Cc1cccc(-c2nc(Nc3ccc4nc(C)sc4c3)c3ccccc3n2)n1` [NK165], for which the Kd on TGFBR1 was greater than 10 µM. Besides, the EC50 was 3.8 µM in the series with endogenous TFE3 (setting [3]) and 0.58 µM in the series on endogenous TFE3 (TFE3 assay, µM). Also, the Summary result in the series with endogenous TFE3 is reported as “Stronger, Some OT activity”.
As for `COc1ccc(Nc2nc(-c3cccc(C)n3)nc3ccccc23)cc1` [NK170], the EC50 in the series with endogenous TFE3 (Homo sapiens) was 0.85 µM; in the series with endogenous TFE3 (Homo sapiens, TFE3 assay, µM), 0.83 µM. The Summary result in the series on endogenous TFE3 is reported as “Weaker, Strong OT activity”. Also, on PRKD1 [2], the Kd is 780 nM.
For `Cc1cccc(-c2nc(Nc3ccc4ccsc4c3)c3ccccc3n2)n1` [NK219], in the series with endogenous TFE3 (Homo sapiens), the EC50 was 2.51 µM. For the same molecule, the EC50 in the series on endogenous TFE3 (Homo sapiens, TFE3 assay, µM) was 2.5 µM. Besides, in the series with endogenous TFE3, the “Best-Fit Values Span” value was found to be 44.67 and the Summary entry was “Weaker, Strong OT activity”. The Kd on PRKD1 [2] was 650 nM.
Regarding `Cc1cccc(-c2nc(Oc3ccc4scnc4c3)c3ccccc3n2)n1` [NK220], the dissociation constant (Kd) on TGFBR1 was greater than 10 µM. Also, in the series with endogenous TFE3, the “Best-Fit Values Span” value turned out to be 0.80 and the Summary result is recorded as “Inactive”.
As to `Cc1cccc(-c2nc(Nc3ccc4nnn(C)c4c3)c3ccccc3n2)n1` [NK222], the Kd on TGFBR1 was greater than 10 µM. Moreover, the EC50 in the series on endogenous TFE3 (setting [3]) was 3.12 µM; with endogenous TFE3 (TFE3 assay, µM), 0.22 µM. The Summary entry in the series with endogenous TFE3 was “Stronger, Some OT activity”.
With `Cc1cccc(-c2nc(Nc3ccc4nn(C)nc4c3)c3ccccc3n2)n1` [NK223], the Kd at TGFBR1 is greater than 10 µM. In the series with endogenous TFE3, the “Best-Fit Values Span” value was determined as 88.41 and the Summary result is “Only OT activity”. Also, the EC50 in the series on endogenous TFE3 (setting [3]) was 1.34 µM.
